From PMC10894237, “KDM3B inhibitors disrupt the oncogenic activity of PAX3-FOXO1 in fusion-positive rhabdomyosarcoma” (Nature Communications, 2024) come the findings set out here.

The target in assay [1] is T1, KDM3B (Homo sapiens, UniProt Q7LBC6). Put plainly: cell-free TR-FRET demethylase inhibition assay (Eurofins). The assay is classed as biochemical. On the technique in general: In TR-FRET formats the signal depends on donor and acceptor labels being close together.
Another assay relates to A673. Nature of the assay: cells. The arrangement: 72 h cell growth/viability dose-response in pediatric solid tumour lines and primary fibroblasts. The note with it: Homo sapiens, A673, 72 h; read-out: P3FI-63 EC50 (72 hr). An excerpt: (§1) The half-maximal effective concentrations (EC50) of P3FI-63 on FP-RMS cell lines RH4, RH30, and SCMC were in the single digit µM range (Fig. 1E). Next, we tested other pediatric solid cancer lines to determine broader applicability of P3FI-63.

The test system of another assay is TC-32. Nature of the assay: cells. The arrangement: 72 h cell growth/viability dose-response in pediatric solid tumour lines and primary fibroblasts. Particulars: Homo sapiens, TC-32, 72 h; read-out: P3FI-63 EC50 (72 hr).
Source text: as §1

In another assay the test system is CTR. Put plainly: cells. More on the design: 72 h cell growth/viability dose-response in pediatric solid tumour lines and primary fibroblasts. The note with it: Fibroblast, 72 h; read-out: P3FI-63 EC50 (72 hr).
Source text: as §1

In a further assay the test system is HU09. Put plainly: cells. The arrangement: 72 h cell growth/viability dose-response in pediatric solid tumour lines and primary fibroblasts. The note with it: Fibroblast, 72 h; read-out: P3FI-63 EC50 (72 hr).
Source text: as §1

The subject of another assay is 7250. Put plainly: cells. More on the design: 72 h cell growth/viability dose-response in pediatric solid tumour lines and primary fibroblasts. Particulars: 72 h, primary human fibroblast; read-out: P3FI-63 EC50 (72 hr), fibroblast.
Source text: as §1

The next assay has as its system OSA. Nature of the assay: cells. More on the design: 72 h cell growth/viability dose-response in pediatric solid tumour lines and primary fibroblasts. The note with it: Fibroblast, 72 h; read-out: P3FI-63 EC50 (72 hr).
Source text: as §1

In assay [2] the target is T1, KDM3B. Nature of the assay: SPR (Biacore T200); also WaterLOGSY and CPMG ligand-observed NMR, and enzyme inhibition (TR-FRET). The assay is classed as binding. More on the design: full-length KDM3B (His6-Avi-KDM3B) for SPR; enzymatic domain (truncated) for NMR.

T1 sequence (Q7LBC6 2-1761): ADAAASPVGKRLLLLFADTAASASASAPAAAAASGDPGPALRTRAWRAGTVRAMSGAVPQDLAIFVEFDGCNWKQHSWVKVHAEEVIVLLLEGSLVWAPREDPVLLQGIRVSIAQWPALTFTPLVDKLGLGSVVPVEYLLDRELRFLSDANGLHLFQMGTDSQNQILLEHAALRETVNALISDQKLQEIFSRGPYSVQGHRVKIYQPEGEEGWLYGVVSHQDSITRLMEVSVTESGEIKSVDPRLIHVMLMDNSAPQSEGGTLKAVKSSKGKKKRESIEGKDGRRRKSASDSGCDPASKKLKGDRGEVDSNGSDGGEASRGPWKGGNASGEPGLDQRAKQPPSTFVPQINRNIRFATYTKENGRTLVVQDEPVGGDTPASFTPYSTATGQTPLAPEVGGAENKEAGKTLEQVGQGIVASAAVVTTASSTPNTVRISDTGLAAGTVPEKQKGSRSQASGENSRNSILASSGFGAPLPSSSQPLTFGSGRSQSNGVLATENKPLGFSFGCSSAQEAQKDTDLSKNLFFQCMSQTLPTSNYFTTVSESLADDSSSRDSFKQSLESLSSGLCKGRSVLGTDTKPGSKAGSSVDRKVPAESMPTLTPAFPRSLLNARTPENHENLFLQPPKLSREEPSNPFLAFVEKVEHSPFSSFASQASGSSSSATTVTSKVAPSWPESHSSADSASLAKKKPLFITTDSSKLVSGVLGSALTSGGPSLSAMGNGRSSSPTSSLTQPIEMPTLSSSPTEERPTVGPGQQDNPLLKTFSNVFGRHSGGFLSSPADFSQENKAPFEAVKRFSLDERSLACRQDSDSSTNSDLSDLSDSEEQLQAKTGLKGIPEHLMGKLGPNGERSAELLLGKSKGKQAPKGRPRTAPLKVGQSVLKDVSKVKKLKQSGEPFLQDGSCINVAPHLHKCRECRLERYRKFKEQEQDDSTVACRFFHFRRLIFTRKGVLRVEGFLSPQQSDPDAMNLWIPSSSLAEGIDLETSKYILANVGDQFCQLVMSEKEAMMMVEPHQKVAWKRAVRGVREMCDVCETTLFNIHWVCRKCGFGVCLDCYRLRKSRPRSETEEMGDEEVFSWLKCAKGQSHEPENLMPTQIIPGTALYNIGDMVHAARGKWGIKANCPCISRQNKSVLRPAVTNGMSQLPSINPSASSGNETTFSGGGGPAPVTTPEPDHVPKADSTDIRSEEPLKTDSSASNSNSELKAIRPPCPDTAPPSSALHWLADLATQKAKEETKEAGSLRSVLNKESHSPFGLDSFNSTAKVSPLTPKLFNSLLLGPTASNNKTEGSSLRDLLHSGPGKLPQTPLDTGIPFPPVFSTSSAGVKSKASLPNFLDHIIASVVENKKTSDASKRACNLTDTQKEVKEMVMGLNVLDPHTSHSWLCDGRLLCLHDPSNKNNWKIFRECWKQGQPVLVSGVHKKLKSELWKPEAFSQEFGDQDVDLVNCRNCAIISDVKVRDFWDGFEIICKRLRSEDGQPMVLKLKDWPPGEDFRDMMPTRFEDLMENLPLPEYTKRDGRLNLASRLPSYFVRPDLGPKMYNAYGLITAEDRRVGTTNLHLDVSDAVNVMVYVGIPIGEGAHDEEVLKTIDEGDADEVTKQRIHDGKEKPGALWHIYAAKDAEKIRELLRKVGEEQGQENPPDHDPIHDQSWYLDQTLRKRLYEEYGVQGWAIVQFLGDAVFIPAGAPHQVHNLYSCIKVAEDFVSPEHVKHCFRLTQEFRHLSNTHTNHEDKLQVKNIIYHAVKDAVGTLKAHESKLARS

In turn, `Cc1cc(C)cc(C(=O)NNC(=O)c2ccccn2)c1` [P3FI-63] displayed a 50% inhibitory concentration (IC50) on KDM3B [1] of 7 µM. For the same compound, the EC50 came out at 3.7 µM with A673; 1.7 µM in the assay with TC-32; 2.92 µM with CTR; 3.1 µM in the assay with HU09; 6.62 µM in the assay with 7250; 7.5 µM in the assay with OSA.
Turning to `O=C(NNc1ccccn1)c1ccccn1` [P3FI-90], the dissociation constant (Kd) on KDM3B [2] is 7.68 µM. In other words, the single-digit micromolar range.

Broadly, the IC50 is the midpoint of a concentration-inhibition curve. The EC50 is the concentration that produces a half-maximal response. Broadly, the Kd is the constant that tells how readily two partners part at equilibrium. A high value points to a looser complex.
